Test results from PubChem BioAssay AID1963425 (Molecular Pharmacology Branch, DTP, NCI, 2024).
pIC50: −log10 of the molar value.

System: 323965-272-R-J2-PDC complex spheroid growth, % test/control
Test: Anticancer human tumor 323965-272-R-J2-PDC patient-derived pancreatic carcinoma cell line growth inhibition [Asc]
Conditions: for pIC50: curve of first compound; for viability, T/C: stronger effect = lower value; active means viability on the fitted dose curve at most 10% of control; inactive means the rest
Procedure: Multicellular complex tumor spheroid response to apoptosis pathway targeting inhibitors Alrizomadlin, Pelcitoclax, and Dasminapant in combination with a variety of drugs and investigational agents in selected tumor cell lines
The MDM2 inhibitor alrizomadlin, the Bcl-2/Bcl-xL inhibitor pelcitoclax, and the IAPs inhibitor dasminapant were evaluated both individually and in combination with standard of care and investigational anticancer small molecules within a complex spheroid model of solid tumors. . Complex spheroids include a stromal component modeled by human endothelial cells (HUVEC) and fibroblasts modeled by human mesenchymal stem cells (MSCs). The concentration ranges selected for each drug and investigational agent were based upon clinically achievable concentrations if the clinical Cmax of the agent was known.
Compounds. The drugs and investigational agents: alrizomadlin (APG-115; NSC831270), pelcitoclax (APG-1252; NSC835773), dasminapant (APG-1387;NSC834197), TAK-243 (NSC785004), copanlisib (NSC809693), olaparib (NSC753686), talazoparib (NSC767125), cobimetinib (NSC 768068), eltanexor (KPT-8602, NSC 794443), abemaciclib (NSC 768073), sotorasib (NSC818433), adagrasib (NSC 831453), MRTX-1133 (NSC 836407), Iadademestat (ORY1001, NSC 806812), and RMC-4630 (NSC839698), were obtained from the NCI Developmental Therapeutics Program Chemical Repository. The FDA-approved anticancer drug set is available from the Developmental Therapeutics Program at https://dtp.cancer.gov/organization/dscb/obtaining/available plates.htm. […] The stock solutions were prepared in dimethyl sulfoxide (DMSO, Sigma-Aldrich, St. Louis, MO, cat. D2650) at 800-fold the tested concentration and stored at -70 degrees C prior to their use. All drugs and investigational agents were tested over a range starting from a high concentration at or near the clinical Cmax and decreasing in half-log increments. If the clinical Cmax for an agent had not been determined, the highest concentration tested was 10 microM.
The patient-derived cancer (PDC) cell lines include five colon adenocarcinomas: 186277-243-T-J2-PDC, 616215-338-R-J1-PDC, 439559-082-T-J2-PDC, 463943-066-T-J2-PDC, and 519858-162-T-J1-PDC; three pancreatic carcinomas: 323965-272-R-J2-PDC, 521955-158-R6-J3-PDC, and 521955-158-R2-J5-PDC; two uterine sarcomas: 327498-152-R-J2-PDC and 993429-296-R-J1-PDC; two rhabdomyosarcomas: 755483-174-R-J1-PDC and 772245-204-R-J1-PDC; two soft tissue sarcomas: 126254-015-R-J1-PDC and 494315-158-R-J1-PDC; two malignant fibrous histiocytomas: 317291-083-R-J1-PDC and 596521-263-R-J1-PDC; two breast carcinomas: 171881-019-R-J1-PDC and 885512-296-R-J2-PDC; and one ovarian carcinoma: 6556581-035-R-J-PDC were obtained from the NCI PDMR, (https://pdmr.cancer.gov). The established cell lines HSSY-2 synovial sarcoma (RRID:CVCL 8719), SYO-1 synovial sarcoma (RRID:CVCL_7146), MPNST malignant peripheral neural sheath tumor were obtained from the Sloan Kettering Institute. The following established cell lines were purchased from the American Type Culture Collection (ATCC, Manassas, VA), Sor the received from the NCI repository:, PANC-1 pancreatic carcinoma (CRL-1469, RRID:CVCL_0480), OVCAR-5 ovarian carcinoma (RRID:CVCL_1628), OVCAR-8 ovarian carcinoma (RRID:CVCL_1629), , MCF-7 breast carcinoma (CRL-12584, RRID:CVCL_0031), MDA-MB-231 breast carcinoma (CRL-12532, RRID:CVCL_0062), NCI-H1876 small cell lung carcinoma (CRL-5902, RRID:CVCL_1503), NCI-H510A small cell lung carcinoma (HTB-184, RRID:CVCL_1565), NCI-H1417 (CRL-5869, RRID:CVCL_1469), and NCI-H196 small cell lung carcinoma (CRL-5823, RRID:CVCL_1509). Dr. Peter Houghton (Greehey Children's Cancer Research Institute, University of Texas Health Science Center, San Antonio, TX) provided Rh-18 rhabdomyosarcoma (RRID:CVCL_1659). Pooled donor human umbilical vein endothelial cells (HUVEC, Lonza, cat. CC-2519) and human mesenchymal stem cells (hMSC, Lonza, cat. PT-2501) were purchased from Lonza (Walkersville, MD).
Cell Culture. […]

[1] = second compound 0.00949 µM, first compound 0.00316 µM
[2] = second compound 0.00949 µM, first compound 0.01 µM
[3] = second compound 0.00949 µM, first compound 0.0316 µM
[4] = second compound 0.00949 µM, first compound 0.1 µM
[5] = second compound 0.00949 µM, first compound 0.316 µM
[6] = second compound 0.00949 µM, first compound 1 µM
[7] = second compound 0.03 µM, first compound 0.00316 µM
[8] = second compound 0.03 µM, first compound 0.01 µM
[9] = second compound 0.03 µM, first compound 0.0316 µM
[10] = second compound 0.03 µM, first compound 0.1 µM
[11] = second compound 0.03 µM, first compound 0.316 µM
[12] = second compound 0.03 µM, first compound 1 µM
[13] = second compound 0.0949 µM, first compound 0.00316 µM
[14] = second compound 0.0949 µM, first compound 0.01 µM
[15] = second compound 0.0949 µM, first compound 0.0316 µM
[16] = second compound 0.0949 µM, first compound 0.1 µM
[17] = second compound 0.0949 µM, first compound 0.316 µM
[18] = second compound 0.0949 µM, first compound 1 µM
[19] = second compound 0.3 µM, first compound 0.00316 µM
[20] = second compound 0.3 µM, first compound 0.01 µM
[21] = second compound 0.3 µM, first compound 0.0316 µM
[22] = second compound 0.3 µM, first compound 0.1 µM
[23] = second compound 0.3 µM, first compound 0.316 µM
[24] = second compound 0.3 µM, first compound 1 µM
[25] = second compound 0.949 µM, first compound 0.00316 µM
[26] = second compound 0.949 µM, first compound 0.01 µM
[27] = second compound 0.949 µM, first compound 0.0316 µM
[28] = second compound 0.949 µM, first compound 0.1 µM
[29] = second compound 0.949 µM, first compound 0.316 µM
[30] = second compound 0.949 µM, first compound 1 µM
[31] = second compound 3 µM, first compound 0.00316 µM
[32] = second compound 3 µM, first compound 0.01 µM
[33] = second compound 3 µM, first compound 0.0316 µM
[34] = second compound 3 µM, first compound 0.1 µM
[35] = second compound 3 µM, first compound 0.316 µM
[36] = second compound 3 µM, first compound 1 µM
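Further: compound exposure lasted 7 days starting three days after spheroid seeding.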
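Wherever viability, T/C is given: 100% = DMSO vehicle control wells with viability set relative to vehicle.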

CCN1CCN(Cc2ccc(Nc3ncc(F)c(-c4cc(F)c5nc(C)n(C(C)C)c5c4)n3)nc2)CC1 + CCN1C(C(=O)NC23CCC(C(=O)O)(CC2)CC3)C(c2cccc(Cl)c2F)C2(C(=O)Nc3cc(Cl)ccc32)C12CCCCC2
inactive: viability, T/C [1] 107% | viability, T/C [2] 107% | viability, T/C [3] 105% | viability, T/C [4] 86.2% | viability, T/C [5] 68.7% | viability, T/C [6] 77% | viability, T/C [7] 103% | viability, T/C [8] 104% | viability, T/C [9] 96.7% | viability, T/C [10] 84.5% | viability, T/C [11] 69.5% | viability, T/C [12] 65.8% | viability, T/C [13] 118% | viability, T/C [14] 112% | viability, T/C [15] 92.2% | viability, T/C [16] 80% | viability, T/C [17] 70.3% | viability, T/C [18] 65.2% | viability, T/C [19] 111% | viability, T/C [20] 104% | viability, T/C [21] 96.6% | viability, T/C [22] 78.9% | viability, T/C [23] 85.1% | viability, T/C [24] 77.1% | viability, T/C [25] 99.8% | viability, T/C [26] 107% | viability, T/C [27] 95.9% | viability, T/C [28] 85.8% | viability, T/C [29] 73.1% | viability, T/C [30] 77.5% | viability, T/C [31] 101% | viability, T/C [32] 115% | viability, T/C [33] 97% | viability, T/C [34] 77% | viability, T/C [35] 78% | viability, T/C [36] 78.9%
< 6.00: pIC50 (second compound 0.00949 µM) | pIC50 (second compound 0.03 µM) | pIC50 (second compound 0.0949 µM) | pIC50 (second compound 0.3 µM) | pIC50 (second compound 0.949 µM) | pIC50 (second compound 3 µM)

O=C(c1ccc(F)c(F)c1Nc1ccc(I)cc1F)N1CC(O)([C@@H]2CCCCN2)C1 + CCN1C(C(=O)NC23CCC(C(=O)O)(CC2)CC3)C(c2cccc(Cl)c2F)C2(C(=O)Nc3cc(Cl)ccc32)C12CCCCC2
6.82: pIC50 (second compound 0.03 µM)
7.09: pIC50 (second compound 3 µM)
6.92: pIC50 (second compound 0.00949 µM) | pIC50 (second compound 0.949 µM)
inactive: viability, T/C [1] 110% | viability, T/C [2] 88.1% | viability, T/C [3] 75% | viability, T/C [4] 52.1% | viability, T/C [5] 32.1% | viability, T/C [6] 19.9% | viability, T/C [7] 113% | viability, T/C [8] 92% | viability, T/C [9] 86.3% | viability, T/C [10] 57.3% | viability, T/C [11] 33.6% | viability, T/C [12] 19.4% | viability, T/C [13] 103% | viability, T/C [14] 89.5% | viability, T/C [15] 75.2% | viability, T/C [16] 55.3% | viability, T/C [17] 32.7% | viability, T/C [18] 19.1% | viability, T/C [19] 93.7% | viability, T/C [20] 106% | viability, T/C [21] 75.7% | viability, T/C [22] 54.6% | viability, T/C [23] 37.1% | viability, T/C [24] 19.2% | viability, T/C [25] 96.3% | viability, T/C [26] 95.9% | viability, T/C [27] 72.9% | viability, T/C [28] 54% | viability, T/C [29] 33.4% | viability, T/C [30] 19.7% | viability, T/C [31] 97.6% | viability, T/C [32] 85.2% | viability, T/C [33] 65.6% | viability, T/C [34] 46.7% | viability, T/C [35] 29.6% | viability, T/C [36] 18.3%
6.90: pIC50 (second compound 0.0949 µM)
6.87: pIC50 (second compound 0.3 µM)
